For the assay, the system named is dendritic cells. Description: IL-10/IL-12 secretion of stimulated dendritic cells (ELISA / ELISPOT) compared with the conventional Signal 3 Assay. It is filed as cell-based, human. To be noted: especially immature DCs (iDCs) and Jonuleit maturated DCs; FIG. 4 ELISA, FIG. 5 ELISPOT. Here is the method:
Monocytes are isolated with adherent isolation followed by dendritic cell generation for 3 days using IL-4 and GMSCF. Afterwards dendritic cells were maturated with MDG cocktail and IL-4 and GMCSF for 24 h. In case of Jonuleit cocktails cells were incubated for 6 days using IL-4 and GMSCF. Then cells where incubated with the Jonuleit cocktail (and IL-4 and GMCSF) for 24 h. For all assays, frozen dendritic cells were used thawed the day before the assay and incubated in DC medium until assay start. Stimulation is carried out for 24 h in a 96 well plate. Therefore, 11,000 dendritic cells were seeded per well. 1.1 μl CD40L in 110 μl DC Medium (VLE RPMI 1640 with 1.5% human serum) 1 μg/ml LPS and R848 were added.
Elisa assay was performed according to the protocols of the human IL-10, IL12p70 respectively, DuoSet ELISA-Kit (R&D Systems, Inc, Minneapolis, USA).
The IL-10/IL-12 Elispot assay was carried out according to the protocol of the Human IL-10/IL-12 Double-Color ELISPOT kit of (C.T.L. Cellular technology Limited, Cleaveland, USA)

On to `CCOCc1nc2c(N)nc3ccccc3c2n1CC(C)(C)O` [R848, 4-amino-2-ethoxymethyl-α,α-dimethyl-1H-imidazol[4,5-c]quinoline-1-ethanol], for which the “IL-10 secretion with R848 as costimulatory reagent added to CD40L” value is “necessary as a costimulatory reagent for optimal IL-10 secretion”.

The values are drawn from patent publication US20210063413A1, “DENDRITIC CELL POTENCY ASSAY” (MEDIGENE IMMUNOTHERAPIES GMBH, priority 2017, published 2021).
